Data taken from US20220047716A1, “COMBINATION THERAPIES WITH ANTI-FOLATE RECEPTOR ANTIBODY CONJUGATES” (SUTRO BIOPHARMA, INC., priority 2018, published 2022).
Values joined by “and” are separate entries in the source; they are usually repeats but may differ in a detail not shown here. Identical values can stand only once.

Key:
[1] = test system: Igrov1 tumors; assay: Igrov1 ovarian tumor xenograft efficacy in SCID Beige mice; format: in vivo; conditions: Igrov1, day 29; ADC Molecule 4 2.5 mg/kg single dose; carboplatin 60 mg/kg q7dx2
Method: Igrov1 ovarian cancer cells were implanted subcutaneously into SCID Beige mice and treated with a single dose of 2.5 mg/kg FolRα ADC variants listed in Table 20. ADCs were administered when tumors reached ˜150 mm^3.

[2] = Pharmacokinetics of free drugs (I) and (II) in Sprague-Dawley rats; format: in vivo; conditions: IV bolus 0.4 or 1 mg/kg, data not shown
Method: To assess the pharmacokinetic profile of free drug (I), female Sprague-Dawley rats (mean body weight 250 g) were given either a 0.4 mg/kg or 1 mg/kg dose by IV bolus administration (N=three animal per dose level) via an indwelling jugular vein catheter. Blood samples were collected at […], 1, 2, 8, 24, 32, 48, and 72 hour post-dose. Levels of free drug (I) and (II) were measured by LC-MS/MS and non-compartmental pharmacokinetic analysis was conducted using Phoenix WinNonlin Version 6.4 (Pharsight Corporation). The PK of free drug (I) could not be estimated due to the fact that concentrations of (I) increased from 2 to 8 hours and were undetectable thereafter.

[3] = Body weight change in rats given free drugs; format: in vivo; conditions: IV bolus, free drug (I) two doses (0.4, 1 mg/kg), free drug (II) 0.4 mg/kg
[4] = test system: MC38-hFolRα tumors; assay: MC38-hFolRα tumor model, combination with Avelumab; conditions: ADC Molecule 4 10 or 15 mg/kg once IV; Avelumab q3dx3 intraperitoneally
Method: Growth curves are shown until >50% of animals in the single agent treatment groups were euthanized due to reaching tumor size limit based on IACUC protocol. […] Statistical analysis for comparison to vehicle control was performed using one-way ANOVA with Dunnett's multiple comparisons test. A probability of less than 5% (p<0.05) was considered as significant. […] All graphs are presented as mean or individual values±SEM.

With `N.N.O=C([O-])C1(C(=O)[O-])CCC1.[Pt+2]` [carboplatin] as the compound, how does the “Final mean tumor size” value [1] read?
Its value is 842 mm^3.

What about the “Tumor growth inhibition (TGI)” value [1] of the same compound?
Its value is 70% and 47%.

With `CN[C@H](C(=O)N[C@H](C(=O)N(C)[C@H](/C=C(\C)C(=O)O)C(C)C)C(C)(C)C)C(C)(C)c1cccc(N)c1` [free drug (I)] as the compound, how does the “Plasma level of free drug” value [2] read?
Its value is “undetectable at 24 hours post dose”.

And the “Effect on body weight” value [3]?
Its value is “did not have an effect on the body weight of the animals”.

Which “Effect on body weight” value [3] does the source give for `COc1cc2cc(c1Cl)N(C)C(=O)C[C@H](OC(=O)[C@H](C)N(C)C(=O)CCC(C)(C)S)[C@]1(C)O[C@H]1[C@H](C)[C@@H]1C[C@@](O)(NC(=O)O1)[C@H](OC)/C=C/C=C(/C)C2` [free drug (II), reference compound] here?
The value was “progressive body weight loss was observed”.

Which “Initial effect on MC38-hFolRα tumor growth” value [4] does the source give for “Avelumab: PD-L1 inhibitor Avelumab (clinical grade)” here?
The value was “tumor stasis until approximately day 7”.
